Source: the NIST ThermoML archive (doi:10.1016/j.fluid.2018.04.024)
± gives the expanded uncertainty stated by the source.

Settings: Liquid, Vibrating tube method

CCCCCC(=O)OC [methyl hexanoate]
mass density [kg/m3]
Settings	293.15 K	303.15 K	313.15 K	323.15 K	333.15 K	343.15 K	353.15 K	363.15 K
100 kPa	884.48 ± 0.91	874.56 ± 0.9	865.26 ± 0.89	855.18 ± 0.88	845.43 ± 0.87	835.2 ± 0.86	825.57 ± 0.85	815.64 ± 0.85
1000 kPa	884.65 ± 0.91	875.42 ± 0.9	865.64 ± 0.89	856.16 ± 0.88	846.26 ± 0.88	836.39 ± 0.87	826.5 ± 0.86	816.87 ± 0.85
3000 kPa	886.42 ± 0.91	877.13 ± 0.91	867.5 ± 0.9	858.01 ± 0.89	848.43 ± 0.88	838.54 ± 0.87	828.96 ± 0.86	819.47 ± 0.85
5000 kPa	887.67 ± 0.92	878.76 ± 0.91	869.26 ± 0.9	859.89 ± 0.89	850.38 ± 0.88	840.78 ± 0.88	831.13 ± 0.87	821.87 ± 0.86
10000 kPa	891.64 ± 0.93	882.75 ± 0.92	873.55 ± 0.91	864.44 ± 0.9	855.15 ± 0.9	845.7 ± 0.89	836.55 ± 0.88	827.32 ± 0.87
15000 kPa	895.33 ± 0.93	886.63 ± 0.93	877.59 ± 0.92	868.76 ± 0.91	859.63 ± 0.91	850.49 ± 0.9	841.75 ± 0.89	833.11 ± 0.89
20000 kPa	898.81 ± 0.94	890.21 ± 0.94	881.48 ± 0.93	872.98 ± 0.92	864 ± 0.92	855.28 ± 0.91	846.44 ± 0.91	837.93 ± 0.9
25000 kPa	902.28 ± 0.95	893.78 ± 0.94	885.29 ± 0.94	876.76 ± 0.93	868.18 ± 0.93	859.46 ± 0.92	851.08 ± 0.92	842.64 ± 0.91
30000 kPa	905.55 ± 0.96	897.24 ± 0.95	888.86 ± 0.95	880.55 ± 0.94	871.99 ± 0.94	863.7 ± 0.93	855.46 ± 0.93	847.27 ± 0.93
35000 kPa	908.69 ± 0.96	900.52 ± 0.96	892.33 ± 0.96	884.15 ± 0.95	875.8 ± 0.95	867.75 ± 0.95	859.68 ± 0.94	851.7 ± 0.94
40000 kPa	911.73 ± 0.97	903.67 ± 0.97	895.54 ± 0.96	887.68 ± 0.96	879.63 ± 0.96	871.46 ± 0.96	863.59 ± 0.95	856.02 ± 0.95
50000 kPa	917.83 ± 0.98	909.79 ± 0.98	901.99 ± 0.98	894.33 ± 0.98	886.48 ± 0.98	878.77 ± 0.98	871.08 ± 0.98	863.88 ± 0.98
60000 kPa	923.06 ± 1	915.57 ± 1	907.83 ± 0.99	900.65 ± 0.99	892.97 ± 0.99	885.3 ± 1	878.16 ± 1	871.24 ± 1
